Test results taken from US11806393B2, “Flavivirus peptide sequences, epitopes, and methods and uses thereof” (priority 2017, dated 2023).

Legend:
CD8+ T cells = assay: IFNγ ELISPOT, ZIKV-infected Ifnar-/- HLA-B*0702 transgenic mice; assay type: cell-based, mouse; details: HLA-B*0702 mice; for SFC/10^6 CD8+ T cells, FSS13025: 7 days after 1×10^2 FFU ZIKV FSS13025; for SFC/10^6 CD8+ T cells, MR766: 7 days after 1×10^2 FFU ZIKV MR766; for immunodominance in IFNγ ELISPOT: immunodominant: >500 SFCs/10^6 CD8+ T cells, shared by both ZIKV strains
Experimental: (§1) Two ZIKV strains, MR766 (Uganda, 1947) and FSS13025 (Cambodia, 2010), were obtained from the World Reference Center for Emerging Viruses and Arboviruses (WRCEVA). The mouse-adapted DENV2 strain S221 is a triple-plaque purified clone derived from DENV2 D2S1038. Both ZIKV and DENV2 were amplified in C6/36 mosquito cells, and viral titers were measured using baby hamster kidney (BHK)-21 cell-based focus forming assay (FFA). For epitope screening, 5-week old mice (female or male) were infected retro-orbitally (R.O.) with either 1×102 FFU of ZIKV FSS13025 or ZIKV MR766, or 2×10^4 FFU of DENV2 S221 in 200 μl 10% FBS/PBS. Seven days after infection, CD8^+ T cells were isolated from splenocytes and used for ELISPOT assay, while the splenocytes were directly used for ICS assay. Additionally, 5-week old mice were inoculated I.P. with 2×10^3 FFU of DENV2 S221 for 4 weeks.
CD8^+ T cells were isolated from splenocytes using magnetic bead positive selection (Miltenyi Biotec, Germany) 7 days after virus infection. 2×10^5 CD8^+ T cells were stimulated with 1×10^5 LPS-blasts loaded with 10 μg of individual peptide in 96-well flat-bottom plates (IMMOBILON™-P; Millipore, Bedford, Mass.) that were coated with anti-IFNγ mAb (clone AN18; Mabtech, Stockholm, Sweden) in triplicate. Concanavalin A (ConA) was used as positive control. After 20 hours of incubation, biotinylated anti-mouse IFNγ mAb (R4-6A2; Mabtech), followed by ABC peroxidase (Vector Laboratories, Burlingame, Calif., USA) and then 3-amino-9-ethylcarbazole (Sigma-Aldrich, St. Louis, Mo., USA) were added into the wells. […] A peptide inducing a magnitude of >500 SFCs/10^6 CD8^+ T cells was considered as an immunodominant peptide.
Two independent experiments performed in triplicate were averaged and the error bars represent the SEM. The data are expressed as the mean number of spot forming cells (SFC) per 10^6 CD8^+ T cells. The criteria for positivity were net SFC per 10^6 cells of >20, and a stimulation index of >2.0 when compared with the negative control. Dotted lines represent the cutoff value. * Indicates a positive response. […] ConA denotes Concanavalin A.

CD3+CD8+ T cells = assay: IFNγ ICS, ZIKV-infected Ifnar-/- HLA-B*0702 transgenic mice; assay type: cell-based, mouse; details: for % IFNγ+ CD8+ T cells, FSS13025 / % IFNγ+ CD8+ T cells, MR766: HLA-B*0702 mice; for % IFNγ+ CD8+ T cells, FSS13025: 7 days after ZIKV FSS13025, ICS; for % IFNγ+ CD8+ T cells, MR766: 7 days after ZIKV MR766, ICS
Experimental: as §1
Spleens were harvested from virus-infected, mock-immunized, or peptide-immunized mice. 1×10^6 splenocytes were plated in each well of 96-well U-bottom plates and stimulated with individual peptide (10 μg crude peptide or 1 μg pure peptide per well) for 6 hours. Five hours before the end of incubation, Brefeldin A (GolgiPlug; BD Biosciences) and PE-conjugated anti CD107a mAb (clone 1D4B, eBioscience) were added to the cells. Splenocytes stimulated with PMA-ionomycin were used as the positive control, while cells without any stimulation were the negative control. […] Samples were run using an LSR™ II (BD Biosciences) and analyzed using FLOWJO™ software X 10.0.7 (Tree Star, Ashland, Oreg.).
Data represent the average of two independent experiments and are expressed as mean±SEM. *, P<0.05; **, P<0.01; Two-tailed Mann-Whitney test. P/I denotes PMA/ionomycin.

Sequence	SFC/10^6 CD8+ T cells, FSS13025 (CD8+ T cells)	SFC/10^6 CD8+ T cells, MR766 (CD8+ T cells)	% IFNγ+ CD8+ T cells, MR766 (CD3+CD8+ T cells)	also measured
SPFGGLKRLPA [FSS-C25-35]	802 SFC/10^6 CD8+ T cells			% IFNγ+ CD8+ T cells, FSS13025 (CD3+CD8+ T cells): (0.79%); simultaneous IFNγ and TNFα production by peptide-stimulated CD8+ T cells (CD3+CD8+ T cells; ZIKV FSS13025-infected mice): stimulated production of both IFNγ and TNFα
RPRTTVVAENI [FSS/MR-NS5605-614]	383 SFC/10^6 CD8+ T cells	641 SFC/10^6 CD8+ T cells	(0.55%)	% IFNγ+ CD8+ T cells, FSS13025 (CD3+CD8+ T cells): (0.22%)
RPAEGGKTVM [MR-NS5332-341]		277 SFC/10^6 CD8+ T cells	(0.35%)	
FPDSNSPINI (FPDSNSPIM) [FSS/MR-NS3309-317]	335 SFC/10^6 CD8+ T cells	565 SFC/10^6 CD8+ T cells	(0.49%)	
IPYLGKREDL [FSS/MR-NS5587-596]	178 SFC/10^6 CD8+ T cells	438 SFC/10^6 CD8+ T cells	(0.26%)	
GPCKVPAQMAV [FSS-E337-347]		271 SFC/10^6 CD8+ T cells		
RPASAWAIYA [FSS/MR-NS4B35-44]		180 SFC/10^6 CD8+ T cells	(0.49%)	
TPHWNNKEAL [FSS/MR-E233-242]	158 SFC/10^6 CD8+ T cells	218 SFC/10^6 CD8+ T cells	(0.3%)	
LPSHSTRKL [FSS/MR-M4-12]	235 SFC/10^6 CD8+ T cells	398 SFC/10^6 CD8+ T cells	(0.28%)	
RPYKAAAAQL [FSS/MR-NS4A36-45]		120 SFC/10^6 CD8+ T cells		
LPILAALTPL [MR-NS2A141-150]		540 SFC/10^6 CD8+ T cells	(0.28%)	
RPEADKVAAI [FSS/MR-NS3492-501]		157 SFC/10^6 CD8+ T cells		
SPQDNQMAI [FSS/MR-NS4A125-133]		159 SFC/10^6 CD8+ T cells		
RVIDSRRCL [FSS/MR-NS3405-413]	236 SFC/10^6 CD8+ T cells	718 SFC/10^6 CD8+ T cells	(0.4%)	% IFNγ+ CD8+ T cells, FSS13025 (CD3+CD8+ T cells): (0.23%)
VPRTDNIAL [MR-NS2A133-141]	648 SFC/10^6 CD8+ T cells	776 SFC/10^6 CD8+ T cells	(1.39%)	immunodominance in IFNγ ELISPOT (CD8+ T cells): immunodominant; % IFNγ+ CD8+ T cells, FSS13025 (CD3+CD8+ T cells): (0.54%)
GPQRLPVPV [FSS/MR-NS199-107]		103 SFC/10^6 CD8+ T cells		
TPLARGTL [FSS/MR-NS2A148-155]	706 SFC/10^6 CD8+ T cells	1055 SFC/10^6 CD8+ T cells	(0.87%)	immunodominance in IFNγ ELISPOT (CD8+ T cells): immunodominant; % IFNγ+ CD8+ T cells, FSS13025 (CD3+CD8+ T cells): (0.28%); simultaneous IFNγ and TNFα production by peptide-stimulated CD8+ T cells (CD3+CD8+ T cells; ZIKV MR766-infected mice): stimulated simultaneous production of IFNγ and TNFα
SPRAEATL [FSS/MR-E173-180]	167 SFC/10^6 CD8+ T cells	108 SFC/10^6 CD8+ T cells		
TPNSPRAEA [FSS/MR-E170-178]		155 SFC/10^6 CD8+ T cells		
AAGKRGAAL [MR-NS3596-NS4A1]		148 SFC/10^6 CD8+ T cells		
TPLTLIVAIIL [FSS/MR-NS4B105-115]		163 SFC/10^6 CD8+ T cells	(0.4%)	
